Results from patent publication US6737383B1, “Herbicidal oxadiazolidines” (priority 1999, dated 2004).

Key:
surinam grass = experiment: Test B pre/postemergence surinam grass; assay type: in vivo, Brachiaria decumbens
In short: (§1)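 Response is a visual 0-to-10 score relative to untreated plants, where 0 means no effect and 10 means complete control, taken twelve to sixteen days after application. Treatments went onto soil at planting and onto foliage of 1- to 4-leaf plants, using a surfactant-containing non-phytotoxic solvent.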

giant foxtail = experiment: Test B pre/postemergence giant foxtail; assay type: in vivo, Setaria faberii
In short: as §1

wild oat = experiment: Test B pre/postemergence wild oat; assay type: in vivo, Avena fatua
In short: as §1

sugar beet = experiment: Test B pre/postemergence sugar beet; assay type: in vivo, Beta vulgaris
In short: as §1

rape = experiment: Test B pre/postemergence rape; assay type: in vivo, Brassica napus
In short: as §1

purple nutsedge = experiment: Test B pre/postemergence purple nutsedge; assay type: in vivo, Cyperus rotundus
In short: as §1

bedstraw = experiment: Test B pre/postemergence bedstraw; assay type: in vivo, Galium aparine
In short: as §1

wheat = experiment: Test B pre/postemergence wheat; assay type: in vivo, Triticum aestivum
In short: as §1

morningglory = experiment: Test B pre/postemergence morningglory; assay type: in vivo, Ipomoea hederacea
In short: as §1

corn = experiment: Test B pre/postemergence corn; assay type: in vivo, Zea mays
In short: as §1

cocklebur = experiment: Test B pre/postemergence cocklebur; assay type: in vivo, Xanthium strumarium
In short: as §1

velvetleaf = experiment: Test B pre/postemergence velvetleaf; assay type: in vivo, Abutilon theophrasti
In short: as §1

pigweed = experiment: Test B pre/postemergence pigweed; assay type: in vivo, Amaranthus retroflexus
In short: as §1

crabgrass = experiment: Test B pre/postemergence crabgrass; assay type: in vivo, Digitaria sanguinalis
In short: as §1

blackgrass = experiment: Test B pre/postemergence blackgrass; assay type: in vivo, Alopecurus myosuroides
In short: as §1

soybean = experiment: Test B pre/postemergence soybean; assay type: in vivo, Glycine max
In short: as §1

[1] = Postemergence, Rate 125 g/ha, scale of 0 to 10 where 0 is no effect and 10 is complete control
[2] = Preemergence, Rate 62 g/ha, scale 0 to 10 (0 no effect, 10 complete control)
[3] = Preemergence, Rate 125 g/ha, 0 is no effect, 10 is complete control
[4] = Preemergence, Rate 250 g/ha, scale 0 to 10, 0 is no effect, 10 is complete control
[5] = Preemergence, Rate 500 g/ha, scale 0 to 10 (0 no effect, 10 complete control)
[6] = Rate 62 g/ha, Postemergence, scale of 0 to 10 where 0 is no effect and 10 is complete control
[7] = Rate 250 g/ha, Postemergence, scale 0 to 10, 0 is no effect, 10 is complete control
[8] = Rate 500 g/ha, Postemergence, scale 0 to 10

CC(C)N(C(=O)n1oc(=O)n(C(C)c2ccccc2)c1=O)c1ccc(Cl)cc1 (centres unmarked) [Compound 133]
4: Giant foxtail plant response rating (giant foxtail; [8]) | Wild oats plant response rating (wild oat; [5]) | Bedstraw plant response rating (bedstraw; [1]) | Plant response rating, Morningglory (morningglory; [7]) | Plant response rating, Crabgrass (crabgrass; [7]) | Crabgrass plant response rating (crabgrass; [8]) | Blackgrass plant response rating (blackgrass; [8])
8: Morningglory plant response rating (morningglory; [8])
0: B. signalgrass plant response rating (surinam grass; [1]) | B. signalgrass plant response rating (surinam grass; [2]) | B. signalgrass plant response rating (surinam grass; [6]) | Giant foxtail plant response rating (giant foxtail; [6]) | Wild oats plant response rating (wild oat; [1]) | Wild oats plant response rating (wild oat; [2]) | Wild oats plant response rating (wild oat; [6]) | Plant response rating, Wild oats (wild oat; [7]) | Wild oats plant response rating (wild oat; [8]) | Sugarbeets plant response rating (sugar beet; [1]) | Sugarbeets plant response rating (sugar beet; [2]) | Sugarbeets plant response rating (sugar beet; [6]) | Plant response rating, Sugarbeets (sugar beet; [7]) | Rape plant response rating (rape; [1]) | Rape plant response rating (rape; [2]) | Rape plant response rating (0 to 10 scale) (rape; [3]) | Rape plant response rating (rape; [4]) | Rape plant response rating (rape; [6]) | Plant response rating, Rape (rape; [7]) | Rape plant response rating (rape; [8]) | Nutsedge plant response rating (purple nutsedge; [1]) | Nutsedge plant response rating (purple nutsedge; [2]) | Nutsedge plant response rating (0 to 10 scale) (purple nutsedge; [3]) | Nutsedge plant response rating (purple nutsedge; [4]) | Nutsedge plant response rating (purple nutsedge; [5]) | Nutsedge plant response rating (purple nutsedge; [6]) | Plant response rating, Nutsedge (purple nutsedge; [7]) | Nutsedge plant response rating (purple nutsedge; [8]) | Bedstraw plant response rating (bedstraw; [2]) | Bedstraw plant response rating (0 to 10 scale) (bedstraw; [3]) | Bedstraw plant response rating (bedstraw; [4]) | Bedstraw plant response rating (bedstraw; [5]) | Bedstraw plant response rating (bedstraw; [6]) | Wheat plant response rating (wheat; [1]) | Wheat plant response rating (wheat; [2]) | Wheat plant response rating (0 to 10 scale) (wheat; [3]) | Wheat plant response rating (wheat; [4]) | Wheat plant response rating (wheat; [5]) | Wheat plant response rating (wheat; [6]) | Plant response rating, Wheat (wheat; [7]) | Morningglory plant response rating (morningglory; [2]) | Morningglory plant response rating (0 to 10 scale) (morningglory; [3]) | Morningglory plant response rating (morningglory; [4]) | Morningglory plant response rating (morningglory; [5]) | Corn plant response rating (corn; [1]) | Corn plant response rating (corn; [2]) | Corn plant response rating (0 to 10 scale) (corn; [3]) | Corn plant response rating (corn; [4]) | Corn plant response rating (corn; [5]) | Corn plant response rating (corn; [6]) | Plant response rating, Corn (corn; [7]) | Corn plant response rating (corn; [8]) | Cocklebur plant response rating (cocklebur; [2]) | Cocklebur plant response rating (0 to 10 scale) (cocklebur; [3]) | Cocklebur plant response rating (cocklebur; [4]) | Velvetleaf plant response rating (velvetleaf; [1]) | Velvetleaf plant response rating (velvetleaf; [2]) | Velvetleaf plant response rating (0 to 10 scale) (velvetleaf; [3]) | Velvetleaf plant response rating (velvetleaf; [6]) | Redroot pigweed plant response rating (pigweed; [1]) | Redroot pigweed plant response rating (pigweed; [2]) | Redroot pigweed plant response rating (0 to 10 scale) (pigweed; [3]) | Redroot pigweed plant response rating (pigweed; [4]) | Redroot pigweed plant response rating (pigweed; [6]) | Plant response rating, Redroot pigweed (pigweed; [7]) | Crabgrass plant response rating (crabgrass; [6]) | Blackgrass plant response rating (blackgrass; [6]) | Soybean plant response rating (soybean; [2]) | Soybean plant response rating (0 to 10 scale) (soybean; [3]) | Soybean plant response rating (soybean; [4]) | Soybean plant response rating (soybean; [5])
1: Crabgrass plant response rating (crabgrass; [2]) | Soybean plant response rating (soybean; [6])
2: Plant response rating, B. signalgrass (surinam grass; [7]) | B. signalgrass plant response rating (surinam grass; Rate 500 g/ha, Postemergence, scale of 0 to 10 where 0 is no effect and 10 is complete control) | Giant foxtail plant response rating (giant foxtail; [1]) | Wild oats plant response rating (0 to 10 scale) (wild oat; [3]) | Wild oats plant response rating (wild oat; [4]) | Sugarbeets plant response rating (0 to 10 scale) (sugar beet; [3]) | Sugarbeets plant response rating (sugar beet; [8]) | Rape plant response rating (rape; [5]) | Wheat plant response rating (wheat; [8]) | Morningglory plant response rating (morningglory; [6]) | Cocklebur plant response rating (cocklebur; [1]) | Cocklebur plant response rating (cocklebur; [5]) | Cocklebur plant response rating (cocklebur; [6]) | Plant response rating, Cocklebur (cocklebur; [7]) | Velvetleaf plant response rating (velvetleaf; [4]) | Velvetleaf plant response rating (velvetleaf; [5]) | Plant response rating, Velvetleaf (velvetleaf; [7]) | Redroot pigweed plant response rating (pigweed; [8]) | Crabgrass plant response rating (crabgrass; [1]) | Blackgrass plant response rating (blackgrass; [1]) | Plant response rating, Blackgrass (blackgrass; [7])
9: Giant foxtail plant response rating (giant foxtail; [4])
3: Giant foxtail plant response rating (giant foxtail; [2]) | Plant response rating, Giant foxtail (giant foxtail; [7]) | Sugarbeets plant response rating (sugar beet; [4]) | Morningglory plant response rating (morningglory; [1]) | Cocklebur plant response rating (cocklebur; [8]) | Redroot pigweed plant response rating (pigweed; [5]) | Crabgrass plant response rating (0 to 10 scale) (crabgrass; [3]) | Blackgrass plant response rating (blackgrass; [2]) | Blackgrass plant response rating (0 to 10 scale) (blackgrass; [3]) | Blackgrass plant response rating (blackgrass; [4]) | Soybean plant response rating (soybean; [1]) | Plant response rating, Soybean (soybean; [7]) | Soybean plant response rating (soybean; [8])
7: B. signalgrass plant response rating (surinam grass; [5]) | Giant foxtail plant response rating (0 to 10 scale) (giant foxtail; [3]) | Plant response rating, Bedstraw (bedstraw; [7]) | Bedstraw plant response rating (bedstraw; Rate 500 g/ha, Postemergence, scale 0 to 10, 0 no effect, 10 complete control)
10: Giant foxtail plant response rating (giant foxtail; [5])
5: B. signalgrass plant response rating (0 to 10 scale) (surinam grass; [3]) | B. signalgrass plant response rating (surinam grass; [4]) | Sugarbeets plant response rating (sugar beet; [5]) | Velvetleaf plant response rating (velvetleaf; [8]) | Crabgrass plant response rating (crabgrass; [4]) | Crabgrass plant response rating (crabgrass; [5]) | Blackgrass plant response rating (blackgrass; [5])
